Data on three compounds can be found in patent US6835724B2, “Corticoid 17,21-dicarboxylic esters and corticosteroid 17-carboxylic ester 21-carbonic esters, processes for their preparation and pharmaceuticals containing these compounds” (Aventis Pharma Deutschland GmbH, priority 1993, dated 2004).

In one data set the test system is rat croton oil ear edema. Put plainly: Local antiinflammatory effect in rat croton oil ear edema following epicutaneous application. It counts as in vivo. The note with it: for Inhibition in % / x ± s (mg), weight difference of treated and untreated ear disks: 4 h; for x ± s (mg), weight difference of treated and untreated ear disks: TPA irritant, control 21.2 ± 5.1; for local antiinflammatory effect: summary in words. The method, then: 1. Local antiinflammatory effect in rat croton oil ear edema following epicutaneous application […] The left ear remained untreated. […] The corticoids under examination were dissolved in this solution in the given final concentrations. Controls only received the TPA/solvent mixture. The animals were sacrificed using CO2 4 h after the epicutaneous treatment. Disks measuring 8 mm in diameter were punched out of the right (treated) and the left (untreated) ears and weighed immediately.

Another data set has as its system gluconeogenesis. Put plainly: Systemic effect: gluconeogenesis in adrenalectomized rats. The note with it: for Glycogen + glucose mg/100 g of liver: 6 hours, control 11.2 ± 1.7; for effect on new formation of glucose and glycogen: t test against control.
The next data set has as its system Carrageenan paw edema. Put plainly: Systemic antiinflammatory effect following subcutaneous administration: Carrageenan paw edema in rats. Type of data set: in vivo, rat. The note with it: for Increase in volume: 6 hours after carrageenan, control 0.58 ± 0.16; for systemic activity: summary in words. An excerpt: 2 a) Examining for systemic antiinflammatory effect in the “antiinflammatory effect following subcutaneous administration: Carrageenan paw edema in rats” test. The carrageenan paw edema test in rats in accordance with the method described by Winter et al., Proc. Soc. exp. Biol. (New York) 111, 544 (1962) was chosen as the test for the acute systemic antiinflammatory effect. […] Controls were only given sesame oil. The paw volumes are given in ml, x±s.
A general note: The carrageenan paw model is a standard test of acute inflammation.

Procedure for gluconeogenesis: 2 b) Examining for systemic effect: gluconeogenesis in rats
A sensitive method for detecting systemic effects on carbohydrate metabolism is to examine the gluconeogenic effect of corticosteroids in the adrenalectomized rat.
Three days prior to the experiment, groups of in each case 6 rats are adrenalectomized under pentobarbital anesthesia and provided with 0.9% sodium chloride solution as drinking fluid. Two days later, i.e. 24 hours before initiating the experiment, the feed is removed in order to reduce the glycogen stores in the liver.
On the day of the experiment, the preparations under examination are administered subcutaneously, dissolved in sesame oil (2 ml/kg). Six hours later, the animals are decapitated, and in each case the liver is removed and 1 g thereof is taken up in 5 ml of 0.6 molar perchloric acid. After homogenization, the free glucose is measured in the supernatant from the centrifugation, while the centrifugation sediment (centrifugate; glycogen) is cleaved enzymically with amyloglucosidase, after which the glucose content is also measured in this fraction (Hexokinase method, Boehringer Mannheim).

Regarding `C[C@]12C=CC(=O)C=C1CC[C@@H]1[C@@H]2[C@@H](O)C[C@@]2(C)[C@H]1CC[C@]2(OC(=O)c1ccccc1)C(=O)COC(=O)Cc1ccccc1` [Compound I, prednisolone 17-benzoate 21-phenylacetic ester], the Inhibition in % is on record as 76% in the data set on rat croton oil ear edema (0.1 mg/ml epicutaneous), 85% in the data set with rat croton oil ear edema (0.3 mg/ml epicutaneous) and 91% in the data set with rat croton oil ear edema (1.0 mg/ml epicutaneous). Also, the “x ± s (mg), weight difference of treated and untreated ear disks” value (“x ± s (mg), weight difference” for short) with rat croton oil ear edema (0.1 mg/ml epicutaneous) is given as 5.0 ± 3.1 mg; in the data set on rat croton oil ear edema (0.3 mg/ml epicutaneous), 3.1 ± 2.5 mg; in the data set with rat croton oil ear edema (1.0 mg/ml epicutaneous), 2.0 ± 1.4 mg. The local antiinflammatory effect result in the data set on rat croton oil ear edema was “strong”. Besides, the “Glycogen + glucose mg/100 g of liver” value was 20.4 ± 11.7 n.s. mg/100 g of liver with gluconeogenesis (0.3 mg/kg s.c.) and 96.0 ± 26.2 mg/100 g of liver with gluconeogenesis (3.0 mg/kg s.c.). Moreover, the “effect on new formation of glucose and glycogen” value in the data set on gluconeogenesis (0.3 mg/kg s.c.) is listed as “still do not have any significant effect”. In addition, the “Increase in volume” value in the data set with Carrageenan paw edema (0.3 mg/kg s.c.) was 0.46 ± 0.19 mL; in the data set with Carrageenan paw edema (3.0 mg/kg s.c.), 0.38 ± 0.15 mL. For the same compound, in the data set with Carrageenan paw edema, the systemic activity entry was “weak”.
`C[C@H]1C[C@H]2[C@@H]3CCC4=CC(=O)C=C[C@]4(C)[C@@]3(F)[C@@H](O)C[C@]2(C)[C@@]1(OC(=O)c1ccccc1)C(=O)COC(=O)Cc1ccccc1` [Compound II, betamethasone 17-benzoate 21-phenylacetic ester]: the results for the Inhibition in % in the data set with rat croton oil ear edema (0.1 mg/ml epicutaneous), with rat croton oil ear edema (0.3 mg/ml epicutaneous) and with rat croton oil ear edema (1.0 mg/ml epicutaneous) were 67%, 77% and 95%, respectively. Moreover, the “x ± s (mg), weight difference” value in the data set on rat croton oil ear edema (0.1 mg/ml epicutaneous) came to 7.0 ± 3.3 mg; in the data set on rat croton oil ear edema (0.3 mg/ml epicutaneous) it was 4.9 ± 3.3 mg; in the data set with rat croton oil ear edema (1.0 mg/ml epicutaneous), 1.1 ± 0.9 mg. In addition, the local antiinflammatory effect result in the data set on rat croton oil ear edema was “strong”. The results for the “Glycogen + glucose mg/100 g of liver” value in the data set on gluconeogenesis (0.3 mg/kg s.c.) and with gluconeogenesis (3.0 mg/kg s.c.) were 10.8 ± 1.3 n.s. mg/100 g of liver and 81.2 ± 61.7 mg/100 g of liver, respectively. For the same compound, in the data set with gluconeogenesis (0.3 mg/kg s.c.), the “effect on new formation of glucose and glycogen” value is reported as “still do not have any significant effect”. The “Increase in volume” value is 0.56 ± 0.09 mL with Carrageenan paw edema (0.3 mg/kg s.c.) and 0.45 ± 0.14 mL in the data set with Carrageenan paw edema (3.0 mg/kg s.c.). In the data set on Carrageenan paw edema, the systemic activity entry is given as “weak”.
`CCOC(=O)O[C@]1(C(=O)COC(=O)CC)CC[C@H]2[C@@H]3CCC4=CC(=O)C=C[C@]4(C)[C@H]3[C@@H](O)C[C@@]21C` [Prednicarbate, prednisolone 17-ethyl carbonate 21-propionate, reference compound]: the Inhibition in % with rat croton oil ear edema (0.1 mg/ml epicutaneous) was found to be 75%; with rat croton oil ear edema (0.3 mg/ml epicutaneous), 88%. Further, the “x ± s (mg), weight difference” value in the data set with rat croton oil ear edema (0.1 mg/ml epicutaneous) was 5.2 ± 3.3 mg; with rat croton oil ear edema (0.3 mg/ml epicutaneous) it was 2.6 ± 2.4 mg. The “Increase in volume” value worked out at 0.36 ± 0.13 mL with Carrageenan paw edema (0.3 mg/kg s.c.) and 0.09 ± 0.08 mL in the data set on Carrageenan paw edema (3.0 mg/kg s.c.).
